Consider 9 molecules from patent publication US20260199367A1, “PLK1 DEGRADATION INDUCING COMPOUNDS WITH INCREASED RIGIDITY” (UPPTHERA, INC., priority 2022, published 2026).

Where only a bound is given, the exact number is not on record here.

Holding throughout (type): cell-based
Experiment [1] relates to NCI-H526 (H526) cell line. Kind of experiment: Cell viability assay for NCI-H526 cell line. Particulars: Homo sapiens, NCI-H526, 120 h, 5 days, EZ-Cytox, 0.46-3000 nM. An excerpt:
(§1) The NCI-H69 (hereafter H69) and NCI-H526 (hereafter H526) cell lines were purchased from Korea Cell Line Bank (KCLB, Seoul, Korea). For cell culture, RPMI 1640 (Gibco, Cat. No. 22400-089; Lot. No. 2537146), FBS (Gibco, Cat. No. 16000-044; Lot. No. 2511328P), Penicillin/Streptomycin (PS) (Gibco, Cat. No. 15140-122; Lot. No. 2441887), 75T cell culture flask (SPL, Cat. No. 71075), 175T cell culture flask (SPL, Cat. No. 71175), 96-well cell culture plate (SPL, Cat. No. 30096), PBS pH 7.4 (Gibco, Cat. No. 10010-023; Lot. No. 2509235), TrypLE™ Express (Gibco, Cat. No. 12605-010; Lot. No. 2323417), Cell Counter (Hematocytometer)(As one, Cat. No. 4-458-01), and 0.4% Trypan Blue Solution (DYNEBIO, Cat. No. CBT3710; Lot. No. 20221111) were used.
(§2) The compounds of Examples were completely dissolved in DMSO (Sigma-Aldrich Cat. No. D2438, Lot. No. RNBL7287) and used in the experiment. 3×10^4 cells were seeded for each well of a 96-well plate (SPL), and the cells were cultured in total volume of 150 μl. Each compound was diluted 3-folds from the highest concentration of 3000 nM to the lowest concentration of 0.46 nM. After treating the compound to each well to make the total volume of 200 μl, it was cultured in a CO2 incubator (Thermo Fisher Science, Cat. No. 4111) for 5 days. Then, after treating EZ-Cytox (DOGEN, Cat.NO. EZ-3000, Lot. No. DLS2308) 20 μl in each well, it was cultured in CO2 incubator for 4 hours. The absorbance of the completely cultured sample was measured by setting the wavelength of a plate reader (BMG Labtech, CLARIOstar Plus) to […], and was measured after shaking for 3 minutes in a plate reader before measurement.
(§3) (A: IC50 is less than 20 nM, B: IC50 is 50 nM or less, C: IC50 is 100 nM or less)

The next experiment deals with NCI-H69 (H69) cell line. Put plainly: Cell viability assay for NCI-H69 cell line. The conditions noted are these: Homo sapiens, NCI-H69, 120 h, 5 days, EZ-Cytox, 0.46-3000 nM.
Text: as §1, §2, §3

In the next experiment the target is T1, PLK1 (Homo sapiens, UniProt P53350).
T1 construct: endogenous in cells; host or cells: HeLa LgBit (PLK1-HiBit KI): HeLa cells stably expressing LgBit, with CRISPR/Cas9 knock-in of HiBit at the endogenous PLK1 locus
Kind of experiment: Luciferase assay for PLK1 in HeLa LgBit (PLK1-HiBit KI) cell line. Particulars: released after thymidine block, compound 300 nM, luminescence after 9 hours. How it is done:
A HeLa cell line in which the LgBit vector was transfected and expressed stably was prepared. Then, after constructing gRNA and donor to express the HiBit amino acid sequence behind the C-terminal of the PLK1 gene, which was inherent in the cell, it was inserted into the cell together with a vector capable of expressing CRISPR/Cas9. Only the cells in which the insertion was completed and knock-in had progressed were selected, sub-cultured and used.
The compounds of Examples were completely dissolved in DMSO (Sigma-Aldrich Cat. No. D2438, Lot. No. RNBL5438) and used in the experiment.
In the case of HeLa LgBit (Plk1-HiBit KI), the compounds were treated after being released after thymidine block, and the process was as follows. Thymidine (Sigma-Aldrich Cat. No. T9250-5G) was completely dissolved in ddH2O and used in the experiment. For thymidine block, the products were treated with 2 mM of thymidine and then incubated for 24 hours. For release and chemical treatment, the medium was suctioned and washed with 1×PBS. TrypLE™ was added and incubated in 37° C. CO2 incubator (Thermo Fisher Science, Cat. No. 4111) for 5 mins. Cells neutralized by adding complete media were counted through a counter. For each well of a 96-well culture plate (SPL), 3.3×10^4 cells and a total medium volume of 150 μl were seeded and incubated in a CO2 incubator.
Each cell line was incubated in a CO2 incubator for 18 hours, and Endurazine (Promega, Cat. No. N257B) was added to each well to make up 4% of the total volume. After adding compounds of Examples in a 96-well white plate (SPL) to a concentration of 300 nM, the wavelength of the plate reader (BMG Labtech, CLARIOstar Plus) was set to 470-480 nM, and then the luminescence was tracked in real time.

T1 sequence (P53350 whole entry): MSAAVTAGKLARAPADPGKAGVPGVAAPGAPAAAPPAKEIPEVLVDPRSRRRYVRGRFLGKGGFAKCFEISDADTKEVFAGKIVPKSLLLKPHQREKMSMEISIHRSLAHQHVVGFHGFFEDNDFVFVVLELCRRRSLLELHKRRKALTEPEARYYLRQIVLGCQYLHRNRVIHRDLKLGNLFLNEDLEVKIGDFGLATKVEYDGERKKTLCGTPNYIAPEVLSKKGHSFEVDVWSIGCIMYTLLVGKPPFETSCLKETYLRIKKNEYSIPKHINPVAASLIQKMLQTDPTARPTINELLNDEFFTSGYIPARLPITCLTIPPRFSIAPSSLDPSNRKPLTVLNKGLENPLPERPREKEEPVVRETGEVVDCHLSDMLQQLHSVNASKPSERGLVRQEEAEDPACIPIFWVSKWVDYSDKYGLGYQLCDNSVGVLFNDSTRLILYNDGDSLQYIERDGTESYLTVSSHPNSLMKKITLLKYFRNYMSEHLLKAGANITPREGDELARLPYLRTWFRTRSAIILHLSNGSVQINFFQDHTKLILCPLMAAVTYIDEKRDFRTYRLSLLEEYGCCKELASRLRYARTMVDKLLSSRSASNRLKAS

With `COc1cc(C(=O)NC2CCC(NCC3CCN(c4ccc(C5CCC(=O)NC5=O)cc4F)CC3)CC2)ccc1Nc1ncc2c(n1)N(C1CCCC1)CC(F)(F)C(=O)N2C` (stereo not drawn) [Compound 30, 4-((9-cyclopentyl-7,7-difluoro-5-methyl-6-oxo-6,7,8,9-tetrahydro-5H-pyrimido[4,5-b][1,4]diazepin-2-yl)amino)-N-((1r,4r)-4-(((1-(4-(2,6-dioxopiperidin-3-yl)-2-fluorophenyl)piperidin-4-yl)methyl)amino)cyclohexyl)-3-methoxybenzamide], the concentration for half-maximal inhibition (IC50) (in experiment [1]; with NCI-H69 (H69) cell line) was at most 50 nM each time. At PLK1, the “Value (luminescence value, PLK1-HiBit)” value was 0.250.

For `CC[C@@H]1C(=O)N(C)c2cnc(Nc3ccc(-c4nnc(CNC5CCN(C(=O)C(N)CN6CCN(c7ccc(C8CCC(=O)NC8=O)cc7)CC6)CC5)o4)cc3OC)nc2N1C1CCCC1` (stereo partly drawn) [Compound 15, 3-(4-(4-(2-amino-3-(4-(((5-(4-(((R)-8-cyclopentyl-7-ethyl-5-methyl-6-oxo-5,6,7,8-tetrahydropteridin-2-yl)amino)-3-methoxyphenyl)-1,3,4-oxadiazol-2-yl)methyl)amino)piperidin-1-yl)-3-oxopropyl)piperazin-1-yl)phenyl)piperidine-2,6-dione], the figures for the IC50 (in experiment [1]; in the experiment with NCI-H69 (H69) cell line) were at most 50 nM and at most 100 nM, respectively. Moreover, the “Value (luminescence value, PLK1-HiBit)” value on PLK1 is 0.345.

On to `COc1cc(C(=O)NC2CCN(C(=O)CCN3CCN(c4ccc(NC5CCC(=O)NC5=O)cc4F)CC3)CC2)ccc1Nc1ncc2c(n1)N(C1CCCC1)CC(F)(F)C(=O)N2C` (stereo not drawn) [Compound 26, 4-((9-cyclopentyl-7,7-difluoro-5-methyl-6-oxo-6,7,8,9-tetrahydro-5H-pyrimido[4,5-b][1,4]diazepin-2-yl)amino)-N-(1-(3-(4-(4-((2,6-dioxopiperidin-3-yl)amino)-2-fluorophenyl)piperazin-1-yl)propanoyl)piperidin-4-yl)-3-methoxybenzamide], for which the values for the IC50 (in experiment [1]; in the experiment on NCI-H69 (H69) cell line) were below 20 nM and at most 50 nM, respectively. Besides, the “Value (luminescence value, PLK1-HiBit)” value at PLK1 is 0.269.

On to `COc1cc(C(=O)NCC2CCN(CC3CCN(c4ccc(C5CCC(=O)NC5=O)cc4)CC3)CC2)ccc1Nc1ncc2c(n1)N(C1CCCC1)CC(F)(F)C(=O)N2C` (stereo not drawn) [Compound 27, 4-((9-cyclopentyl-7,7-difluoro-5-methyl-6-oxo-6,7,8,9-tetrahydro-5H-pyrimido[4,5-b][1,4]diazepin-2-yl)amino)-N-((1-((1-(4-(2,6-dioxopiperidin-3-yl)phenyl)piperidin-4-yl)methyl)piperidin-4-yl)methyl)-3-methoxybenzamide], for which the IC50 (in experiment [1]; with NCI-H69 (H69) cell line) was at most 50 nM each time. The “Value (luminescence value, PLK1-HiBit)” value on PLK1 turned out to be 0.295.

As for `CC[C@@H]1C(=O)N(C)c2cnc(Nc3ccc(C(=O)NC4CCC(N5CCN(CCNc6ccc(C7CCC(=O)NC7=O)cc6)CC5)CC4)cc3OC)nc2N1C1CCCC1` (stereo partly drawn) [Compound 1, 4-(((R)-8-cyclopentyl-7-ethyl-5-methyl-6-oxo-5,6,7,8-tetrahydropteridin-2-yl)amino)-N-((1r,4R)-4-(4-(2-((4-(2,6-dioxopiperidin-3-yl)phenyl)amino)ethyl)piperazin-1-yl)cyclohexyl)-3-methoxybenzamide], the IC50 (in experiment [1]; in the experiment on NCI-H69 (H69) cell line) was below 20 nM each time. The “Value (luminescence value, PLK1-HiBit)” value at PLK1 is recorded as 0.139.

As to `COc1cc(C(=O)NCC2CCN(CC3CCN(c4ccc(NC5CCC(=O)NC5=O)cc4)CC3)CC2)ccc1Nc1ncc2c(n1)N(C1CCCC1)CC(F)(F)C(=O)N2C` (stereo not drawn) [Compound 28, 4-((9-cyclopentyl-7,7-difluoro-5-methyl-6-oxo-6,7,8,9-tetrahydro-5H-pyrimido[4,5-b][1,4]diazepin-2-yl)amino)-N-((1-((1-(4-((2,6-dioxopiperidin-3-yl)amino)phenyl)piperidin-4-yl)methyl)piperidin-4-yl)methyl)-3-methoxybenzamide], the results for the IC50 (in experiment [1]; with NCI-H69 (H69) cell line) were at most 50 nM and at most 100 nM, respectively. The “Value (luminescence value, PLK1-HiBit)” value on PLK1 is 0.259.

On to `CC[C@@H]1C(=O)N(C)c2cnc(Nc3ccc(C(=O)N[C@H]4CC[C@H](NCC5CCN(c6ccc(C7CCC(=O)NC7=O)nc6)CC5)CC4)cc3OC)nc2N1C1CCCC1` (stereo partly drawn) [Compound 25, 4-(((R)-8-cyclopentyl-7-ethyl-5-methyl-6-oxo-5,6,7,8-tetrahydropteridin-2-yl)amino)-N-((1r,4R)-4-(((1-(6-(2,6-dioxopiperidin-3-yl)pyridin-3-yl)piperidin-4-yl)methyl)amino)cyclohexyl)-3-methoxybenzamide], for which the IC50 (in experiment [1]; in the experiment with NCI-H69 (H69) cell line) was below 20 nM in each case. The “Value (luminescence value, PLK1-HiBit)” value at PLK1 is reported as 0.144.

In the case of `CC[C@@H]1C(=O)N(C)c2cnc(Nc3ccc(C(=O)NC4CCC(N5CCC(NCc6ccc(C7CCC(=O)NC7=O)cc6)CC5)CC4)cc3OC)nc2N1C1CCCC1` (stereo partly drawn) [Compound 8, 4-(((R)-8-cyclopentyl-7-ethyl-5-methyl-6-oxo-5,6,7,8-tetrahydropteridin-2-yl)amino)-N-((1r,4R)-4-(4-((4-(2,6-dioxopiperidin-3-yl)benzyl)amino)piperidin-1-yl)cyclohexyl)-3-methoxybenzamide], the IC50 (in experiment [1]; in the experiment on NCI-H69 (H69) cell line) was below 20 nM each time. For the same molecule, the “Value (luminescence value, PLK1-HiBit)” value on PLK1 is recorded as 0.279.

Take `CC[C@@H]1C(=O)N(C)c2cnc(Nc3ccc(C(=O)NC4CCC(N5CCC(CNc6ccc(C7CCC(=O)NC7=O)cc6)CC5)CC4)cc3OC)nc2N1C1CCCC1` (stereo partly drawn) [Compound 2, 4-(((R)-8-cyclopentyl-7-ethyl-5-methyl-6-oxo-5,6,7,8-tetrahydropteridin-2-yl)amino)-N-((1r,4R)-4-(4-(((4-(2,6-dioxopiperidin-3-yl)phenyl)amino)methyl)piperidin-1-yl)cyclohexyl)-3-methoxybenzamide]: the IC50 (in experiment [1]; in the experiment with NCI-H69 (H69) cell line) was below 20 nM each time. Also, the “Value (luminescence value, PLK1-HiBit)” value on PLK1 was 0.129.
